Values after ≈ are worked out from the molar mass of the structure shown.
Assays:
[1] = test system: Providencia 12052; assay: MIC, agar dilution test/Isosensitest medium; assay type: cell-based; details: agar dilution test, Isosensitest medium
From the text: (§1) In most cases the values are identical, but for some strains they are about 2-4 times better.
(§2) Agar dilution test/Isosensitest medium

[2] = test system: E. coli A 261; assay: MIC, agar dilution test/Isosensitest medium; assay type: cell-based; details: Escherichia coli, A261, agar dilution test, Isosensitest medium
From the text: as §1, §2

[3] = test system: Klebsiella 6179; assay: MIC, agar dilution test/Isosensitest medium; assay type: cell-based; details: agar dilution test, Isosensitest medium
From the text: as §1, §2

[4] = test system: Pseudomonas W.; assay: MIC, agar dilution test/Isosensitest medium; assay type: cell-based; details: agar dilution test, Isosensitest medium
From the text: as §1, §2

[5] = test system: E. coli 455/7; assay: MIC, agar dilution test/Isosensitest medium; assay type: cell-based; details: Escherichia coli, agar dilution test, Isosensitest medium
From the text: as §1, §2

[6] = test system: Klebsiella 57 USA; assay: MIC, agar dilution test/Isosensitest medium; assay type: cell-based; details: agar dilution test, Isosensitest medium
From the text: as §1, §2

[7] = test system: Proteus mir. 8223; assay: MIC, agar dilution test/Isosensitest medium; assay type: cell-based; details: agar dilution test, Isosensitest medium
From the text: as §1, §2

[8] = test system: Proteus mir. 8175; assay: MIC, agar dilution test/Isosensitest medium; assay type: cell-based; details: agar dilution test, Isosensitest medium
From the text: as §1, §2

[9] = Serum levels in mice after oral administration; assay type: in vivo; details: mouse, 5 mg/kg, read-out: Serum level; for concentration at 0.25 h: 15'; for concentration at 0.5 h: 30'
From the text: as §1
Serum levels in mice after oral administration

[10] = Serum levels in mice following subcutaneous administration; assay type: in vivo; details: mouse, sc, 5 mg/kg, read-out: Serum level; for concentration at 0.25 h: 15'; for concentration at 0.5 h: 30'
Description: as §1
Serum levels in mice following subcutaneous
administration of 5 mg/kg

[11] = Pharmacokinetics in mice following oral and parenteral administration; assay type: in vivo; details: versus II
From the text: as §1

[12] = test system: strains of Table 1; assay: MIC comparison over the strains of Table 1; assay type: cell-based; details: versus II
From the text: as §1, §2

| Structure (SMILES) | MIC [1] | MIC [2] | MIC [3] | MIC [4] | MIC [5] | MIC [6] | MIC [7] | MIC [8] | concentration at 0.25 h [9] | concentration at 0.5 h [9] | concentration at 1 h [9] | concentration at 2 h [9] | concentration at 0.25 h [10] | concentration at 0.5 h [10] | concentration at 1 h [10] | concentration at 2 h [10] | Bioavailability compared with the comparison product ([11]; following oral and parenteral administration) | Serum levels compared with the comparison product ([11]; mice, oral and parenteral) | MIC values compared with II: times better ([12]; for some strains) | MIC values compared with II ([12]; in most cases) |
| --- | --- | --- | --- | --- | --- | --- | --- | --- | --- | --- | --- | --- | --- | --- | --- | --- | --- | --- | --- | --- |
| CNn1cc(C(=O)O)c(=O)c2cc(F)c(N3CCN(C)CC3)cc21 [II, reference compound] | 16 µg/mL (≈ 47.9 µM) | 0.06 µg/mL (≈ 0.179 µM) | 0.25 µg/mL (≈ 0.748 µM) | 1 µg/mL (≈ 2.99 µM) | 8 µg/mL (≈ 23.9 µM) | 0.25 µg/mL (≈ 0.748 µM) | 4 µg/mL (≈ 12 µM) | 0.125 µg/mL (≈ 0.374 µM) | 700 ng/mL | 580 ng/mL | 320 ng/mL | 100 ng/mL | 840 ng/mL | 1300 ng/mL | 450 ng/mL | 100 ng/mL |  |  |  |  |
| CNn1cc(C(=O)O)c(=O)c2cc(F)c(N3CCN(C)CC3)c(F)c21 [Example 3] | 4 µg/mL (≈ 11.4 µM) | 0.06 µg/mL (≈ 0.17 µM) | 0.125 µg/mL (≈ 0.355 µM) | 1 µg/mL (≈ 2.84 µM) | 8 µg/mL (≈ 22.7 µM) | 0.125 µg/mL (≈ 0.355 µM) | 4 µg/mL (≈ 11.4 µM) | 0.25 µg/mL (≈ 0.71 µM) | 900 ng/mL | 1200 ng/mL | 600 ng/mL | 250 ng/mL | 1200 ng/mL | 1400 ng/mL | 920 ng/mL | 300 ng/mL | better bioavailability | higher serum levels | 2-4 times | identical |
